Measured values: EP0908457B1, “3-(1,2-benzisothiazol- and isoxazol-5-Y1)-2,4(1H,3H)-pyrimidinedione or thione and 3-(1,2-benzisothiazol- and isoxazol-5-y1)-4(3H)-pyrimidinone or thione herbicidal agents” (BASF AKTIENGESELLSCHAFT, priority 1997, dated 1999)

What was measured:
[1] = test system: Echinochloa oryzoides (Ard.) Fritsch.; assay: Preemergence weed control under flooded paddy conditions, ECHORC (Watergrass (Calif.)); format: in vivo; settings: preemergence, flooded paddy, rated three to four weeks after treatment; note: meaning of each grade not given here
Cyperus iria [2] = assay: Preemergence weed control under flooded paddy conditions, CYPIR (Rice Flatsedge); format: in vivo; settings: preemergence, flooded paddy, rated three to four weeks after treatment; note: meaning of each grade not given here
[3] = test system: Cyperus serotinus, Rottb.; assay: Preemergence weed control under flooded paddy conditions, CYPSE (Flatsedge); format: in vivo; settings: preemergence, rated three to four weeks after treatment; note: meaning of each grade not given here
[4] = test system: Monochoria vaginalis, Presl.; assay: Preemergence weed control under flooded paddy conditions, MOOVA (Monochoria); format: in vivo; settings: preemergence, flooded paddy, rated three to four weeks after treatment; note: meaning of each grade not given here
Sagittaria pygmaea, L. [5] = assay: Preemergence weed control under flooded paddy conditions, SAGPY (Arrowhead (Pygmaea)); format: in vivo; settings: preemergence, flooded paddy, rated three to four weeks after treatment; note: meaning of each grade not given here
[6] = test system: Echinochloa oryzoides (Ard.) Fritsch.; assay: Postemergence weed control under flooded paddy conditions, ECHORC (Watergrass (Calif.)); format: in vivo; settings: rated three to four weeks after treatment
Cyperus iria [7] = assay: Postemergence weed control under flooded paddy conditions, CYPIR (Rice Flatsedge); format: in vivo; settings: rated three to four weeks after treatment
[8] = test system: Cyperus serotinus, Rottb.; assay: Postemergence weed control under flooded paddy conditions, CYPSE (Flatsedge); format: in vivo; settings: rated three to four weeks after treatment
[9] = test system: Monochoria vaginalis, Presl.; assay: Postemergence weed control under flooded paddy conditions, MOOVA (Monochoria); format: in vivo; settings: rated three to four weeks after treatment
Sagittaria pygmaea, L. [10] = assay: Postemergence weed control under flooded paddy conditions, SAGPY (Arrowhead (Pygmaea)); format: in vivo; settings: rated three to four weeks after treatment
[11] = test system: Oryza sativa, (L.) Tebonnet; assay: Rice tolerance to post-transplant applications under flooded paddy conditions (Example 187), ORYSAT (Rice, Tebonnet); settings: rated three to four weeks after treatment; for herbicidal effect rating ORYSAT: meaning of each grade not given here
[12] = test system: Oryza sativa, (L.) Tebonnet; assay: Rice tolerance to post-transplant applications under flooded paddy conditions (Example 188), ORYSAT (Rice, Tebonnet); settings: rated three to four weeks after treatment

Compound: COc1cc2c(cc1-c1nsc3ccc(-n4c(=O)cc(C(F)(F)F)n(C)c4=O)cc13)CCC2 [Example 380, 2,4(1H,3H)-Pyrimidinedione, 3-[3-(6-methoxy-5-indanyl)-1,2-benzisothiazol-5-yl]-1-methyl-6-(trifluoromethyl)-]
- herbicidal effect rating, ECHORC ([1]; Rate 0.0320 kg/ha): 9.0
- herbicidal effect rating, ECHORC ([1]; Rate 0.0620 kg/ha): 9.0
- herbicidal effect rating, ECHORC ([1]; Rate 0.1250 kg/ha): 9.0
- herbicidal effect rating, ECHORC ([1]; Rate 0.2500 kg/ha): 9.0
- herbicidal effect rating, CYPIR (Cyperus iria [2]; Rate 0.0320 kg/ha): 9.0
- herbicidal effect rating, CYPIR (Cyperus iria [2]; Rate 0.0620 kg/ha): 9.0
- herbicidal effect rating, CYPIR (Cyperus iria [2]; Rate 0.1250 kg/ha): 9.0
- herbicidal effect rating, CYPIR (Cyperus iria [2]; Rate 0.2500 kg/ha): 9.0
- herbicidal effect rating, CYPSE ([3]; Rate 0.0320 kg/ha): 3.5
- herbicidal effect rating, CYPSE ([3]; Rate 0.0620 kg/ha): 3.5
- herbicidal effect rating, CYPSE ([3]; Rate 0.1250 kg/ha): 8.0
- herbicidal effect rating, CYPSE ([3]; Rate 0.2500 kg/ha): 8.0
- herbicidal effect rating, MOOVA ([4]; Rate 0.0320 kg/ha): 9.0
- herbicidal effect rating, MOOVA ([4]; Rate 0.0620 kg/ha): 9.0
- herbicidal effect rating, MOOVA ([4]; Rate 0.1250 kg/ha): 9.0
- herbicidal effect rating, MOOVA ([4]; Rate 0.2500 kg/ha): 9.0
- herbicidal effect rating, SAGPY (Sagittaria pygmaea, L. [5]; Rate 0.0320 kg/ha): 0.0
- herbicidal effect rating, SAGPY (Sagittaria pygmaea, L. [5]; Rate 0.0620 kg/ha): 0.0
- herbicidal effect rating, SAGPY (Sagittaria pygmaea, L. [5]; Rate 0.1250 kg/ha): 4.0
- herbicidal effect rating, SAGPY (Sagittaria pygmaea, L. [5]; Rate 0.2500 kg/ha): 9.0
- herbicidal effect rating, ECHORC ([6]; Rate 0.0320 kg/ha): 7.0
- herbicidal effect rating, ECHORC ([6]; Rate 0.0620 kg/ha): 8.0
- herbicidal effect rating, ECHORC ([6]; Rate 0.1250 kg/ha): 9.0
- herbicidal effect rating, ECHORC ([6]; Rate 0.2500 kg/ha): 9.0
- herbicidal effect rating, CYPIR (Cyperus iria [7]; Rate 0.0320 kg/ha): 9.0
- herbicidal effect rating, CYPIR (Cyperus iria [7]; Rate 0.0620 kg/ha): 9.0
- herbicidal effect rating, CYPIR (Cyperus iria [7]; Rate 0.1250 kg/ha): 9.0
- herbicidal effect rating, CYPIR (Cyperus iria [7]; Rate 0.2500 kg/ha): 9.0
- herbicidal effect rating, CYPSE ([8]; Rate 0.0320 kg/ha): 0.0
- herbicidal effect rating, CYPSE ([8]; Rate 0.0620 kg/ha): 2.0
- herbicidal effect rating, CYPSE ([8]; Rate 0.1250 kg/ha): 2.0
- herbicidal effect rating, CYPSE ([8]; Rate 0.2500 kg/ha): 8.0
- herbicidal effect rating, MOOVA ([9]; Rate 0.0320 kg/ha): 9.0
- herbicidal effect rating, MOOVA ([9]; Rate 0.0620 kg/ha): 9.0
- herbicidal effect rating, MOOVA ([9]; Rate 0.1250 kg/ha): 9.0
- herbicidal effect rating, MOOVA ([9]; Rate 0.2500 kg/ha): 9.0
- herbicidal effect rating, SAGPY (Sagittaria pygmaea, L. [10]; Rate 0.0320 kg/ha): 0.0
- herbicidal effect rating, SAGPY (Sagittaria pygmaea, L. [10]; Rate 0.0620 kg/ha): 0.0
- herbicidal effect rating, SAGPY (Sagittaria pygmaea, L. [10]; Rate 0.1250 kg/ha): 2.0
- herbicidal effect rating, SAGPY (Sagittaria pygmaea, L. [10]; Rate 0.2500 kg/ha): 8.0
- herbicidal effect rating ORYSAT ([11]; Rate 0.0320 kg/ha): 2.5
- herbicidal effect rating ORYSAT ([11]; Rate 0.0620 kg/ha): 4.0
- herbicidal effect rating ORYSAT ([11]; Rate 0.1250 kg/ha): 5.0
- herbicidal effect rating ORYSAT ([11]; Rate 0.2500 kg/ha): 6.5
- herbicidal effect rating, ORYSAT (rice tolerance) ([12]; Rate 0.0320 kg/ha): 3.0
- herbicidal effect rating, ORYSAT (rice tolerance) ([12]; Rate 0.0620 kg/ha): 7.0
- herbicidal effect rating, ORYSAT (rice tolerance) ([12]; Rate 0.1250 kg/ha): 7.0
- herbicidal effect rating, ORYSAT (rice tolerance) ([12]; Rate 0.2500 kg/ha): 7.0

Compound: Cc1nsc2ccc(-n3c(=O)cc(C(F)(F)F)n(C)c3=O)cc12 [Example 6, 1-Methyl-3-(3-methyl-1,2-benzisothiazol-5-yl)-6-(trifluoromethyl)-2,4(1H,3H)-pyrimidinedione]
- herbicidal effect rating, ECHORC ([1]; 0.0625 kg/ha): 6.0
- herbicidal effect rating, ECHORC ([1]; 0.1250 kg/ha): 8.0
- herbicidal effect rating, ECHORC ([1]; 0.2500 kg/ha): 9.0
- herbicidal effect rating, ECHORC ([1]; 0.5000 kg/ha): 9.0
- herbicidal effect rating, CYPIR (Cyperus iria [2]; 0.0625 kg/ha): 9.0
- herbicidal effect rating, CYPIR (Cyperus iria [2]; 0.1250 kg/ha): 9.0
- herbicidal effect rating, CYPIR (Cyperus iria [2]; 0.2500 kg/ha): 9.0
- herbicidal effect rating, CYPIR (Cyperus iria [2]; 0.5000 kg/ha): 9.0
- herbicidal effect rating, CYPSE ([3]; 0.0625 kg/ha): 4.0
- herbicidal effect rating, CYPSE ([3]; 0.1250 kg/ha): 7.0
- herbicidal effect rating, CYPSE ([3]; 0.2500 kg/ha): 9.0
- herbicidal effect rating, CYPSE ([3]; 0.5000 kg/ha): 9.0
- herbicidal effect rating, MOOVA ([4]; 0.0625 kg/ha): 9.0
- herbicidal effect rating, MOOVA ([4]; 0.1250 kg/ha): 9.0
- herbicidal effect rating, MOOVA ([4]; 0.2500 kg/ha): 9.0
- herbicidal effect rating, MOOVA ([4]; 0.5000 kg/ha): 9.0
- herbicidal effect rating, SAGPY (Sagittaria pygmaea, L. [5]; 0.0625 kg/ha): 4.0
- herbicidal effect rating, SAGPY (Sagittaria pygmaea, L. [5]; 0.1250 kg/ha): 7.0
- herbicidal effect rating, SAGPY (Sagittaria pygmaea, L. [5]; 0.2500 kg/ha): 7.0
- herbicidal effect rating, SAGPY (Sagittaria pygmaea, L. [5]; 0.5000 kg/ha): 9.0
- herbicidal effect rating, ECHORC ([6]; Rate 0.0313 kg/ha): 4.0
- herbicidal effect rating, ECHORC ([6]; Rate 0.0625 kg/ha): 7.0
- herbicidal effect rating, ECHORC ([6]; Rate 0.1250 kg/ha): 9.0
- herbicidal effect rating, ECHORC ([6]; Rate 0.2500 kg/ha): 9.0
- herbicidal effect rating, ECHORC ([6]; Rate 0.5000 kg/ha): 9.0
- herbicidal effect rating, CYPIR (Cyperus iria [7]; Rate 0.0313 kg/ha): 9.0
- herbicidal effect rating, CYPIR (Cyperus iria [7]; Rate 0.0625 kg/ha): 9.0
- herbicidal effect rating, CYPIR (Cyperus iria [7]; Rate 0.1250 kg/ha): 9.0
- herbicidal effect rating, CYPIR (Cyperus iria [7]; Rate 0.2500 kg/ha): 9.0
- herbicidal effect rating, CYPIR (Cyperus iria [7]; Rate 0.5000 kg/ha): 9.0
- herbicidal effect rating, CYPSE ([8]; Rate 0.0313 kg/ha): 0.0
- herbicidal effect rating, CYPSE ([8]; Rate 0.0625 kg/ha): 2.0
- herbicidal effect rating, CYPSE ([8]; Rate 0.1250 kg/ha): 7.0
- herbicidal effect rating, CYPSE ([8]; Rate 0.2500 kg/ha): 7.0
- herbicidal effect rating, CYPSE ([8]; Rate 0.5000 kg/ha): 9.0
- herbicidal effect rating, MOOVA ([9]; Rate 0.0313 kg/ha): 9.0
- herbicidal effect rating, MOOVA ([9]; Rate 0.0625 kg/ha): 9.0
- herbicidal effect rating, MOOVA ([9]; Rate 0.1250 kg/ha): 9.0
- herbicidal effect rating, MOOVA ([9]; Rate 0.2500 kg/ha): 9.0
- herbicidal effect rating, MOOVA ([9]; Rate 0.5000 kg/ha): 9.0
- herbicidal effect rating, SAGPY (Sagittaria pygmaea, L. [10]; Rate 0.0313 kg/ha): 2.0
- herbicidal effect rating, SAGPY (Sagittaria pygmaea, L. [10]; Rate 0.0625 kg/ha): 4.0
- herbicidal effect rating, SAGPY (Sagittaria pygmaea, L. [10]; Rate 0.1250 kg/ha): 6.0
- herbicidal effect rating, SAGPY (Sagittaria pygmaea, L. [10]; Rate 0.2500 kg/ha): 8.0
- herbicidal effect rating, SAGPY (Sagittaria pygmaea, L. [10]; Rate 0.5000 kg/ha): 9.0
- herbicidal effect rating, ORYSAT (rice tolerance) ([11]; 0.0625 kg/ha): 8.0
- herbicidal effect rating, ORYSAT (rice tolerance) ([11]; 0.1250 kg/ha): 8.0
- herbicidal effect rating, ORYSAT (rice tolerance) ([11]; 0.2500 kg/ha): 8.0
- herbicidal effect rating, ORYSAT (rice tolerance) ([11]; 0.5000 kg/ha): 8.0
- herbicidal effect rating, ORYSAT (rice tolerance) ([12]; Rate 0.0313 kg/ha): 4.0
- herbicidal effect rating, ORYSAT (rice tolerance) ([12]; Rate 0.0625 kg/ha): 4.0
- herbicidal effect rating, ORYSAT (rice tolerance) ([12]; Rate 0.1250 kg/ha): 9.0
- herbicidal effect rating, ORYSAT (rice tolerance) ([12]; Rate 0.2500 kg/ha): 9.0
- herbicidal effect rating, ORYSAT (rice tolerance) ([12]; Rate 0.5000 kg/ha): 9.0
